# Values joined by “and” are separate entries in the source; they are usually repeats but may differ in a detail not shown here. Equal values may be shown once.
# Tests used:
# [1] = Metabolic stability / psilocin release in liver fractions; assay type: in vitro ADME, human; conditions: HLM and HLS9; 2.5 μM; up to 2 hours
# Text: (§1) A fundamental evaluation in drug development is the assessment of absorption, distribution, metabolism, excretion, and pharmacokinetics (ADME/PK) (Eddershaw et al., 2000, Drug Discovery Today 5(9): 409-414). […] Drug stability upon exposure to human liver microsomes and liver S9 cellular fractions is a common in vitro assay to approximate in vivo, liver-based drug metabolism (Richardson et al., 2016 Drug Metabolism Letters 10:83-90). First-pass metabolism is also often approximated in vitro using intestinal microsome and cellular S9 fractions (Hatley et al., 2017, Biopharmaceuticals & Drug Disposition, 38(2):155-160). […] Supernatants were analyzed for the presence of candidate prodrugs (parent molecule) and psilocin (the predicted metabolite) using Orbitrap LC-MS (Thermo Scientific) using previously described methods (Menéndez-Perdomo et al., 2021, J Mass Spectrom, 56: e4683). […] Assay concentrations (M) of both parent ‘prodrug’ molecule and psilocin metabolite, as quantified through LC-MS using routine standard curve procedures, were plotted as functions of assay time (minutes). The metabolism rate (T1/2) was determined from the metabolism curve plot using the one phase decay feature of GraphPad PRISM software (Version 9.2.0). The quantity of parent prodrug at time zero was set as 100%. […]
# [2] = Mouse pharmacokinetic (PK) study, parent compound and psilocin metabolite in plasma; assay type: in vivo
# Text: (§2) Briefly, the procedure was as follows. […] 19, 2022.
# [3] = Metabolic stability / psilocin release in serum; assay type: in vitro ADME; conditions: 10% human AB serum
# Text: as §1
# [4] = Stability in enzyme-free control buffer; assay type: in vitro ADME; conditions: 50 mM potassium phosphate buffer pH 7.4
# Text: A fundamental evaluation in drug development is the assessment of absorption, distribution, metabolism, excretion, and pharmacokinetics (ADME/PK) (Eddershaw et al., 2000, Drug Discovery Today 5(9): 409-414). […] Drug stability upon exposure to human liver microsomes and liver S9 cellular fractions is a common in vitro assay to approximate in vivo, liver-based drug metabolism (Richardson et al., 2016 Drug Metabolism Letters 10:83-90). First-pass metabolism is also often approximated in vitro using intestinal microsome and cellular S9 fractions (Hatley et al., 2017, Biopharmaceuticals & Drug Disposition, 38(2):155-160). […] Supernatants were analyzed for the presence of candidate prodrugs (parent molecule) and psilocin (the predicted metabolite) using Orbitrap LC-MS (Thermo Scientific) using previously described methods (Menéndez-Perdomo et al., 2021, J Mass Spectrom, 56: e4683). […] Assay concentrations (M) of both parent ‘prodrug’ molecule and psilocin metabolite, as quantified through LC-MS using routine standard curve procedures, were plotted as functions of assay time (minutes). The metabolism rate (T1/2) was determined from the metabolism curve plot using the one phase decay feature of GraphPad PRISM software (Version 9.2.0). The quantity of parent prodrug at time zero was set as 100%.
# 5-HT1A receptor = target: T1, 5-HT1A receptor (Homo sapiens, UniProt P08908); assay: cAMP-Glo assay of 5-HT1A receptor modulation, CHO-K1/5-HT1A/Ga15 (+5-HT1A) vs CHO-K1/Ga15 (−5-HT1A) cells; assay type: cell-based; conditions: +5-HT1A vs −5-HT1A CHO-K1 cells; 4 μM forskolin; increasing ligand concentration
# T1 construct: host or cells: CHO-K1 (co-expressing Ga15)
# T1 sequence (P08908 1-422): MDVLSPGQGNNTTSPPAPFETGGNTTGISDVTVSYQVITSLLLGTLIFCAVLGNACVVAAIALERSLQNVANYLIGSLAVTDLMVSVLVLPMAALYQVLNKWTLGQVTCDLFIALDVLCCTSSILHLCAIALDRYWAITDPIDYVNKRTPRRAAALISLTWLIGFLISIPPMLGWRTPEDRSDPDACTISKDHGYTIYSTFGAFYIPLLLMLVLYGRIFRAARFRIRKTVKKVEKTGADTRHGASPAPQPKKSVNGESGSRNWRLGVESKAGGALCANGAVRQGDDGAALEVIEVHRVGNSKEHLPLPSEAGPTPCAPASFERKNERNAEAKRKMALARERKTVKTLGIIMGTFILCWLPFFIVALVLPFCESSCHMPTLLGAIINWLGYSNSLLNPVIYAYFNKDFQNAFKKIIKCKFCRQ
# [5] = target: T2, 5-HT2A receptor (5-HT2AR) (Mus musculus, UniProt P35363); assay: Drug-induced Head Twitch Response (HTR); assay type: in vivo; conditions: 1 mg/kg i.p., 15-to-30-minute window post-drug, relative to vehicle
# T2 construct: host or cells: C57BL/6 mice, in vivo (neuronal receptor)
# T2 sequence (P35363 whole entry): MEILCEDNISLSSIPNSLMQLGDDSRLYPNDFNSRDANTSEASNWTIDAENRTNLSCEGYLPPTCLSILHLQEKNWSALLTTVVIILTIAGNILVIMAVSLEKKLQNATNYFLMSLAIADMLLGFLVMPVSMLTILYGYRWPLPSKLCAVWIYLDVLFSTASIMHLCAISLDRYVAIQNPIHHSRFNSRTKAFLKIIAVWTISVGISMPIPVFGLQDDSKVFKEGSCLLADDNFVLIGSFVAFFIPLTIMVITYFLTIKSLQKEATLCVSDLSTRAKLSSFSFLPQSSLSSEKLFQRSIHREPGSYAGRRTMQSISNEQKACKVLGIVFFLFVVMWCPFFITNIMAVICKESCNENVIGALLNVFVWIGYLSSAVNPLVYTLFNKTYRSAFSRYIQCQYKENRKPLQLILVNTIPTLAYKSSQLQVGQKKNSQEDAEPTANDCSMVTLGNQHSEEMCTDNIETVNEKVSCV
# [6] = Dosing solution concentration by LC-MS (nominal vs measured); assay type: physicochemical
# Experimental: as §2
# Pharmacokinetic (PK) evaluations were performed in the same manner as described in Example 1, except compound C(IV) was used in place of compound C(V). […] Thus, only psilocin PK analysis was performed. […] Table 46 summarizes these “measured” concentrations along with corresponding “nominal” concentrations for each dosing solution. Results for psilocin PK following C(IV) administration are found in Tables 47A-47B (0.293 mg/kg IV dose), Tables 48A-48B (0.275 mg/kg oral dose), Tables 49A-49B (0.789 mg/kg oral dose), Tables 50A-50B (2.52 mg/kg oral dose), Table 51 (comparative summary for IV data), Table 52 (comparative summary for oral data), Table 53A (psilocin exposure) and FIGS. 10H (i) and 10H (ii).
compound,measurement,setting,value
"CN(C)CCc1c[nH]c2cccc(OP(=O)(O)O)c12 [psilocybin, reference compound]",Metabolic stability and conversion to psilocin in liver fractions,[1],stable in liver fractions with no conversion to psilocin
same,Detection of parent compound in plasma after i.v. administration,"[2]; mouse, 1 mg/kg i.v.",only detectable in i.v. administered animals
same,Plasma concentration of parent compound,"[2]; mouse, 1 mg/kg i.v., 0.25 h, individual animals, BLQ = below 0.5 ng/mL (C(V)), 1 mg/kg",3.32 ng/mL and 8.95 ng/mL and 27.2 ng/mL
same,Plasma concentration of parent compound,"[2]; mouse, 1 mg/kg i.v., 0.5 h, individual animals, BLQ = below 0.5 ng/mL (C(V)), 1 mg/kg",No Peak and 2.35 ng/mL and 6.21 ng/mL
same,Plasma concentration of parent compound,"[2]; mouse, 1 mg/kg i.v., 1 h, individual animals, 1 mg/kg",No Peak
same,Plasma concentration of parent compound,"[2]; mouse, 1 mg/kg i.v., 2 h, individual animals",No Peak
same,Plasma concentration of parent compound,"[2]; mouse, 1 mg/kg i.v., 4 h, individual animals",No Peak
same,Plasma concentration of parent compound,"[2]; mouse, 1 mg/kg i.v., 6 h, individual animals",No Peak
same,Plasma concentration of parent compound,"[2]; mouse, 1 mg/kg i.v., 8 h, individual animals, 1 mg/kg",No Peak
same,Detection of parent compound in plasma after oral administration,"[2]; mouse, orally administered, any dose (1, 3, 10 mg/kg)",not detectable
same,Plasma concentration of psilocin,"[2]; mouse, prodrug 1 mg/kg p.o. (psilocybin: 1.56 mg/kg), 24 h, individual animals, BLQ = below 0.2 ng/mL",BLQ
same,Plasma concentration of psilocin,"[2]; mouse, prodrug 3 mg/kg p.o., 24 h, individual animals, BLQ = below 0.2 ng/mL",BLQ
same,Metabolic stability and conversion to psilocin in serum,[3],stable in serum with no conversion to psilocin
same,Stability in assay buffer,[4],stability of psilocybin was confirmed in assay buffer
CN(C)CCc1c[nH]c2cccc(OC(=O)CC3CC3)c12 [C(IV)],5-HT1A receptor modulation (reduction of forskolin-induced cAMP),5-HT1A receptor,significant receptor modulation
same,Head Twitch Response (HTR) incidence,[5],Elevated incidences of HTR
same,Plasma concentration of psilocin,"[2]; 0.275 mg/kg oral C(IV), 4 h, individual mice, LLOQ 0.2 ng/mL",BLQ
same,Plasma concentration of psilocin,"[2]; 0.275 mg/kg oral C(IV), 6 h, individual mice, LLOQ 0.2 ng/mL",BLQ
same,Plasma concentration of psilocin,"[2]; 0.275 mg/kg oral C(IV), 8 h, individual mice, LLOQ 0.2 ng/mL",BLQ
same,Plasma concentration of psilocin,"[2]; 0.275 mg/kg oral C(IV), 24 h, individual mice, LLOQ 0.2 ng/mL",No Peak
same,Plasma concentration of psilocin,"[2]; 0.293 mg/kg i.v. C(IV), 8 h, individual mice, LLOQ 0.2 ng/mL",No Peak and BLQ (2×)
same,Plasma concentration of psilocin,"[2]; 0.789 mg/kg oral C(IV), 8 h, individual mice, LLOQ 0.2 ng/mL",BLQ
same,Plasma concentration of psilocin,"[2]; 0.789 mg/kg oral C(IV), 24 h, individual mice, LLOQ 0.2 ng/mL",No Peak
same,Plasma concentration of psilocin,"[2]; 2.52 mg/kg oral C(IV), 24 h, individual mice, LLOQ 0.2 ng/mL",BLQ and No Peak (2×)
same,Detection of parent compound in plasma,"[2]; mouse, any animals at any dose (i.v. and oral)",not detectable in any animals at any dose
same,Stability in dosing solutions,[6],compound instability in dosing solutions
